The assay addresses T1, human full-length MKNK1 (Homo sapiens, UniProt Q9BUB5, T385D).
T1 construct: GST (N); purchased Carna Biosciences 02-145; host or cells: insect cells (baculovirus expression system)
Description: MKNK1 kinase high ATP assay (TR-FRET). It is filed as biochemical. Conditions: 2 mM ATP, after preincubation with MKNK1; read-out: MKNK1 IC50 (MKNK1 high ATP). Summed up: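 Compound was preincubated 15 min at 22° C. with MKNK1 in 50 mM HEPES pH 7.5, 5 mM MgCl2, 1.0 mM DTT, then the reaction ran 30 min at 22° C. with 2 mM ATP and 0.06 μM biotinylated peptide (final).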
On the technique in general: TR-FRET usually uses a lanthanide donor and a delayed reading to cut background.
T1 sequence (Q9BUB5 1-424 isoform Q9BUB5-2 T344D): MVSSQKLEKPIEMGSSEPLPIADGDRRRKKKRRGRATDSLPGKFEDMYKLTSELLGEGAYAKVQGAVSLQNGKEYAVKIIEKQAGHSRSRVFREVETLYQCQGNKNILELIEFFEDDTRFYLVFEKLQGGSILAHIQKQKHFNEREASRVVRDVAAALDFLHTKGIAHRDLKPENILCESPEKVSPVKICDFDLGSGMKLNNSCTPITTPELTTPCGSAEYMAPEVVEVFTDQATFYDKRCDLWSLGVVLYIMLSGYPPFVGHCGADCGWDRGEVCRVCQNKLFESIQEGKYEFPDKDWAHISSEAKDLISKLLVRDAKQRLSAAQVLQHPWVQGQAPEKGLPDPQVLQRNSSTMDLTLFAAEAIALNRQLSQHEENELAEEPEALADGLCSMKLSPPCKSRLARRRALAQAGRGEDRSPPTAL
With `O=C(NCC1CC1)C1CCc2c(sc3ncnc(Nc4ccc5[nH]ncc5c4)c23)C1` (stereo not drawn) [Example 7, N-(Cyclopropylmethyl)-4-(1H-indazol-5-ylamino)-5,6,7,8-tetrahydro[1]benzothieno[2,3-d]pyrimidine-7-carboxamide], the IC50 (in general, the midpoint of a concentration-inhibition curve) came out at 6 nM. In the case of `COc1cc2[nH]ncc2cc1Nc1ncnc2sc3c(c12)CCC(C(=O)N(C)C1CC1)C3` (racemic) [Example 181, (RS)—N—Cyclopropyl-4-[(6-methoxy-1H-indazol-5-yl)amino]-N-methyl-5,6,7,8-tetrahydro[1]benzothieno[2,3-d]pyrimidine-7-carboxamide] it was 0.2 nM; in that of `CN(Cc1ccnn1C)C(=O)C1CCc2c(sc3ncnc(Nc4ccc5[nH]ncc5c4)c23)C1` (racemic) [Example 138, (RS)-4-(1H-indazol-5-ylamino)-N-methyl-N-[(1-methyl-1H-pyrazol-5-yl)methyl]-5,6,7,8-tetrahydro[1]benzothieno[2,3-d]pyrimidine-7-carboxamide], 12.6 nM; in that of `O=C(NCCc1ccccc1)C1CCc2c(sc3ncnc(Nc4ccc5[nH]ncc5c4)c23)C1` (stereo not drawn) [Example 37, 4-(1H-Indazol-5-ylamino)-N-(2-phenylethyl)-5,6,7,8-tetrahydro[1] benzothieno [2,3-d]pyrimidine-7-carboxamide], 6 nM.

Take `O=C(C1CCc2c(sc3ncnc(Nc4ccc5[nH]ncc5c4)c23)C1)N1CCN(Cc2cccnc2)CC1` (racemic) [Example 155, (RS)-[4-(1H-indazol-5-ylamino)-5,6,7,8-tetrahydro[1]benzothieno[2,3-d]pyrimidin-7-yl][4-(pyridin-3-ylmethyl)piperazin-1-yl]methanone]: the IC50 is 18.3 nM. On to `N#Cc1cccc(NC(=O)C2CCc3c(sc4ncnc(Nc5ccc6[nH]ncc6c5)c34)C2)c1` (racemic) [Example 79, (RS)—N-(3-Cyanophenyl)-4-(1H-indazol-5-ylamino)-5,6,7,8-tetrahydro[1]benzothieno[2,3-d]pyrimidine-7-carboxamide], for which the IC50 was 10.5 nM. For the compound `CCOc1cc2[nH]ncc2cc1Nc1ncnc2sc3c(c12)CCC(C(=O)N(C)CC(O)CO)C3` (racemic) [Example 257, (7RS)—N-[(2RS)-2,3-Dihydroxypropyl]-4-[(6-ethoxy-1H-indazol-5-yl)amino]-N-methyl-5,6,7,8-tetrahydro[1]benzothieno[2,3-d]pyrimidine-7-carboxamide], the IC50 came out at 0.6 nM. In the case of `CC(O)CN(C)C(=O)C1CCc2c(sc3ncnc(Nc4ccc5[nH]ncc5c4)c23)C1` (racemic) [Example 122, (RS)-N-(2-hydroxypropyl)-4-(1H-indazol-5-ylamino)-N-methyl-5,6,7,8-tetrahydro[1]benzothieno[2,3-d]pyrimidine-7-carboxamide] it was 11.2 nM. `O=C(C1CCc2c(sc3ncnc(Nc4ccc5[nH]ncc5c4)c23)C1)N1CCN2CCCCC2C1` (racemic) [Example 192, (RS)-[4-(1H-indazol-5-ylamino)-5,6,7,8-tetrahydro[1]benzothieno[2,3-d]pyrimidin-7-yl](octahydro-2H-pyrido[1,2-a]pyrazin-2-yl)methanone]: the IC50 was found to be 15.1 nM. With `O=C(NCCOc1ccccc1)C1CCc2c(sc3ncnc(Nc4ccc5[nH]ncc5c4)c23)C1` (stereo not drawn) [Example 31, 4-(1H-Indazol-5-ylamino)-N-(2-phenoxyethyl)-5,6,7,8-tetrahydro[1] benzothieno [2,3-d]pyrimidine-7-carboxamide], the IC50 worked out at 4 nM.

With `CCOc1cc2[nH]ncc2cc1Nc1ncnc2sc3c(c12)CCC(C(=O)N(C)C(C)C)C3` (racemic) [Example 224, (RS)-4-[(6-Ethoxy-1H-indazol-5-yl)amino]-N-isopropyl-N-methyl-5,6,7,8-tetrahydro[1]benzothieno[2,3-d]pyrimidine-7-carboxamide], the IC50 stood at 0.6 nM. In the case of `O=C(O)C1CCc2c(sc3ncnc(Nc4cc5cn[nH]c5cc4F)c23)C1` (stereo not drawn) [Example 55, 4-[(6-Fluoro-1H-indazol-5-yl)amino]-5,6,7,8-tetrahydro[1]benzothieno[2,3-d]pyrimidine-7-carboxylic acid] it was 37 nM.

The values are drawn from patent US9540392B2, “Thienopyrimidines” (BAYER PHARMA AKTIENGESELLSCHAFT, priority 2012, dated 2017).
